Assay results: patent US4891373A, “Aminopropanol derivatives of 1,4:3,6-dianhydrohexitol nitrates, processes for their preparation and their use as medicaments” (Pfizer Inc., priority 1988, dated 1990)

Assays:
[1] = test system: systolic blood pressure (SBP) and heart rate (HR); test: Systolic blood pressure and heart rate following peroral administration to conscious beagle dogs; assay type: in vivo, beagle dog; conditions: mean ± SEM
Description: Duration of the action of various substances on the systolic blood
heart rate (HR) following peroral administration to conscious beagle

[2] = test system: cardiovascular parameters (MAP, HR, LVSP, LVEDP, dp/dtmax, TPR, PAP, SV, CO); test: Cardiovascular actions following intravenous administration to anesthetized dogs (pentobarbital) with opened thorax and artificial respiration; assay type: in vivo, dog; conditions: for CO (cardiac output), change / PAP (blood pressure in the A. pulmonalis), change / SV (stroke volume), change: vs pre-value, unsigned
Description: (§1) venous administration to anesthetized dogs (pentobarbital)
(§2) with an opened thorax and artificial respiration.
as §1, §2

[3] = test system: T-wave increase in the ECG induced by lypressin; test: Influence on the T-wave increase in the ECG of the anesthetized rat induced by intravenous bolus injection of lypressin; assay type: in vivo; conditions: p.o.
Experimental: Influence of various compounds on the T-wave
increase in the ECG of the anesthetized rat induced by
intravenous bolus injection of lypressin was determined
following the method of M. Leitold et al., Drug Res.,
36, 1454 (1986). The substances were administered
perorally 30 minutes or at various times before the […]

[4] = Tolerance of peroral dose in mice; conditions: mouse, in vivo, po
Description: Set forth below is data obtained on the compounds of Examples 17, 19 and 20 that illustrates the pharmacological action of the compounds of the present invention.

[5] = Survival rate of rats after an acute coronary ligature; assay type: in vivo, rat
Experimental: Influence of various substances on the survival
rate of rats 60 minutes, 24 hours and 7 days after an
acute coronary ligature was determined following the
method of I. Lepran, et al., L. Szekeres, Acta
Physiologica Sci. Hungaricae 53, 190 (1979). The
substances were administered orally 5 minutes before
the acute coronary ligature.

[6] = 60 minutes, 100.0 mg/kg orally 5 min before ligature
[7] = 24 hours, 100.0 mg/kg orally 5 min before ligature
[8] = 7 days, 100.0 mg/kg orally 5 min before ligature

COc1ccccc1N1CCN(CC(O)CO[C@H]2CO[C@H]3[C@@H]2OC[C@H]3O[N+](=O)[O-])CC1 (stereo partly drawn) [Example 17, 2-O-<3-[4-(2-Methoxyphenyl)-piperazinyl]-2-hydroxypropyl>-isosorbide-5-nitrate]
SBP (systolic blood pressure), action of substance ([1]; 6.0 mg/kg p.o., after 1 hour): 91 ± 6 mmHg
HR (heart rate), action of substance ([1]; 6.0 mg/kg p.o., after 2 hours): 110 ± 16 Bts/M
SBP (systolic blood pressure), action of substance ([1]; 6.0 mg/kg p.o., after 2 hours): 89 ± 4 mmHg
HR (heart rate), action of substance ([1]; 6.0 mg/kg p.o., after 3 hours): 89 ± 8 Bts/M
SBP (systolic blood pressure), action of substance ([1]; 6.0 mg/kg p.o., after 3 hours): 97 ± 5 mmHg
HR (heart rate), action of substance ([1]; 6.0 mg/kg p.o., after 6 hours): 89 ± 5 Bts/M
HR (heart rate), action of substance ([1]; 6.0 mg/kg p.o., after 8 hours): 85 ± 7 Bts/M
CO (cardiac output), action of substance ([2]; 30 μg/kg i.v.): 0.93 ± 0.07 l/M
CO (cardiac output), duration of action ([2]; 30 μg/kg i.v.): 6 ± 3 min
PAP (blood pressure in the A. pulmonalis), action of substance ([2]; 30 μg/kg i.v.): 17.0 ± 4 mmHg
PAP (blood pressure in the A. pulmonalis), duration of action ([2]; 30 μg/kg i.v.): 2 ± 0.3 min
SV (stroke volume), duration of action ([2]; 30 μg/kg i.v.): 2 ± 0.2 min
CO (cardiac output), change ([2]; 30 μg/kg i.v.): 0.07 ± 0.04 l/M
PAP (blood pressure in the A. pulmonalis), change ([2]; 30 μg/kg i.v.): 1.3 ± 0.5 mmHg
SV (stroke volume), change ([2]; 30 μg/kg i.v.): 0.4 ± 0.2 mL/s
CO (cardiac output), duration of action ([2]; 300 μg/kg i.v.): 73 ± 40 min
PAP (blood pressure in the A. pulmonalis), duration of action ([2]; 300 μg/kg i.v.): 1.4 ± 0.1 min
SV (stroke volume), action of substance ([2]; 300 μg/kg i.v.): 3.7 ± 0.4 mL/s
SV (stroke volume), duration of action ([2]; 300 μg/kg i.v.): 74 ± 43 min
PAP (blood pressure in the A. pulmonalis), change ([2]; 300 μg/kg i.v.): 1.5 ± 0.5 mmHg
SV (stroke volume), change ([2]; 300 μg/kg i.v.): 0.7 ± 0.3 mL/s
CO (cardiac output), duration of action ([2]; 3000 μg/kg i.v.): > 75 min
PAP (blood pressure in the A. pulmonalis), duration of action ([2]; 3000 μg/kg i.v.): 2 ± 0.6 min
SV (stroke volume), action of substance ([2]; 3000 μg/kg i.v.): 3.0 ± 0.6 mL/s
SV (stroke volume), duration of action ([2]; 3000 μg/kg i.v.): > 75 min
CO (cardiac output), change ([2]; 3000 μg/kg i.v.): 0.450 ± 0.025 l/m
PAP (blood pressure in the A. pulmonalis), change ([2]; 3000 μg/kg i.v.): 2.3 ± 0.8 mmHg
SV (stroke volume), change ([2]; 3000 μg/kg i.v.): 2.6 ± 0.4 mL/s
Duration of action at the ED50 dose [3]: 2 h
Tolerated peroral dose [4]: 500 mg/kg
Number of rats surviving after an acute coronary ligature ([5]; 60 minutes, 30.0 mg/kg orally 5 min before ligature): 17/20
Number of rats surviving after an acute coronary ligature ([5]; 24 hours, 30.0 mg/kg orally 5 min before ligature): 17/20
Number of rats surviving after an acute coronary ligature ([5]; 7 days, 30.0 mg/kg orally 5 min before ligature): 17/20

COc1ccccc1N1CCN(CC(O)CO[C@@H]2CO[C@H]3[C@@H]2OC[C@H]3O[N+](=O)[O-])CC1 (stereo partly drawn) [Example 19, 5-O-<3-[4-(2-Methoxyphenyl)-piperazinyl]-2-hydroxypropyl>-isomannide-2-nitrate]
HR (heart rate), action of substance ([1]; 5.0 mg/kg p.o., after 2 hours): 90 ± 5 Bts/M
HR (heart rate), action of substance ([1]; 5.0 mg/kg p.o., after 3 hours): 85 ± 5 Bts/M
SBP (systolic blood pressure), action of substance ([1]; 5.0 mg/kg p.o., after 3 hours): 118 ± 6 mmHg
HR (heart rate), action of substance ([1]; 5.0 mg/kg p.o., after 6 hours): 86 ± 5 Bts/M
Duration of action at the ED50 dose [3]: 4 h
Tolerated peroral dose [4]: 500 mg/kg
Number of rats surviving after an acute coronary ligature [5, 6]: 15/20
Number of rats surviving after an acute coronary ligature [5, 7]: 15/20
Number of rats surviving after an acute coronary ligature [5, 8]: 15/20

COc1ccccc1N1CCN(CC(O)CO[C@H]2CO[C@H]3[C@@H]2OC[C@@H]3O[N+](=O)[O-])CC1 (stereo partly drawn) [Example 20, 5-O-<3-[4-(2-Methoxyphenyl)-piperazinyl]-2-hydroxypropyl>-isoidide-2-nitrat]
HR (heart rate), action of substance ([1]; 5.0 mg/kg p.o., after 1 hour): 98 ± 7 Bts/M
SBP (systolic blood pressure), action of substance ([1]; 5.0 mg/kg p.o., after 1 hour): 97 ± 8 mmHg
SBP (systolic blood pressure), action of substance ([1]; 5.0 mg/kg p.o., after 2 hours): 95 ± 6 mmHg
HR (heart rate), action of substance ([1]; 5.0 mg/kg p.o., after 3 hours): 82 ± 7 Bts/M
SBP (systolic blood pressure), action of substance ([1]; 5.0 mg/kg p.o., after 3 hours): 106 ± 4 mmHg
HR (heart rate), action of substance ([1]; 5.0 mg/kg p.o., after 6 hours): 78 ± 6 Bts/M
HR (heart rate), action of substance ([1]; 5.0 mg/kg p.o., after 8 hours): 77 ± 6 Bts/M
CO (cardiac output), action of substance ([2]; 30 μg/kg i.v.): 0.81 ± 0.3 l/M
CO (cardiac output), duration of action ([2]; 30 μg/kg i.v.): 12 ± 6 min
PAP (blood pressure in the A. pulmonalis), action of substance ([2]; 30 μg/kg i.v.): 16.0 ± 1 mmHg
PAP (blood pressure in the A. pulmonalis), duration of action ([2]; 30 μg/kg i.v.): 11 ± 6 min
SV (stroke volume), action of substance ([2]; 30 μg/kg i.v.): 7.5 ± 2 mL/s
SV (stroke volume), duration of action ([2]; 30 μg/kg i.v.): 12 ± 6 min
CO (cardiac output), change ([2]; 30 μg/kg i.v.): 0.38 ± 0.1 l/M
PAP (blood pressure in the A. pulmonalis), change ([2]; 30 μg/kg i.v.): 0.4 ± 0.2 mmHg
SV (stroke volume), change ([2]; 30 μg/kg i.v.): 2.3 ± 1 mL/s
CO (cardiac output), duration of action ([2]; 300 μg/kg i.v.): 35 ± 23 min
PAP (blood pressure in the A. pulmonalis), duration of action ([2]; 300 μg/kg i.v.): 14 ± 13 min
SV (stroke volume), action of substance ([2]; 300 μg/kg i.v.): 7.2 ± 2.5 mL/s
SV (stroke volume), duration of action ([2]; 300 μg/kg i.v.): 33 ± 23 min
CO (cardiac output), change ([2]; 300 μg/kg i.v.): 0.21 ± 0.6 l/M
PAP (blood pressure in the A. pulmonalis), change ([2]; 300 μg/kg i.v.): 0.7 ± 0.3 mmHg
SV (stroke volume), change ([2]; 300 μg/kg i.v.): 0.5 ± 2.9 mL/s
CO (cardiac output), duration of action ([2]; 3000 μg/kg i.v.): 3 ± 0.4 min
PAP (blood pressure in the A. pulmonalis), duration of action ([2]; 3000 μg/kg i.v.): > 177 min
SV (stroke volume), duration of action ([2]; 3000 μg/kg i.v.): 4 ± 0.0 min
CO (cardiac output), change ([2]; 3000 μg/kg i.v.): 0.87 ± 0.7 l/m
PAP (blood pressure in the A. pulmonalis), change ([2]; 3000 μg/kg i.v.): 1.1 ± 0.3 mmHg
Duration of action at the ED50 dose [3]: 4 h
Tolerated peroral dose [4]: 500 mg/kg
Number of rats surviving after an acute coronary ligature [5, 6]: 14/20
Number of rats surviving after an acute coronary ligature [5, 7]: 14/20
Number of rats surviving after an acute coronary ligature [5, 8]: 14/20
